Paper PMC6167049, “Structural and catalytic properties of the peroxygenase P450 enzyme CYP152K6 from Bacillus methanolicus” (Journal of Inorganic Biochemistry, 2018)

Key:
CYP152K6 [1] = target: T1, CYP152K6 (Bacillus methanolicus, UniProt I3DZK9); test: X-band EPR and UV-visible spectroscopy; assay type: binding; details: ferric enzyme; EPR at 10 K, 1 and 2 mM ligand; UV-visible with 400 μM ligand, pH 8.0, 25 °C; H2O2-driven turnover also tested
T1 construct: gene cypC; codon-optimised synthetic gene in pET24b, E. coli BL21 (DE3); N-terminal 6xHis-tag cut with TEV protease; monomer; 417 residues in crystal model; co-purifies with tetradecanoic acid
T1 sequence (I3DZK9 whole entry): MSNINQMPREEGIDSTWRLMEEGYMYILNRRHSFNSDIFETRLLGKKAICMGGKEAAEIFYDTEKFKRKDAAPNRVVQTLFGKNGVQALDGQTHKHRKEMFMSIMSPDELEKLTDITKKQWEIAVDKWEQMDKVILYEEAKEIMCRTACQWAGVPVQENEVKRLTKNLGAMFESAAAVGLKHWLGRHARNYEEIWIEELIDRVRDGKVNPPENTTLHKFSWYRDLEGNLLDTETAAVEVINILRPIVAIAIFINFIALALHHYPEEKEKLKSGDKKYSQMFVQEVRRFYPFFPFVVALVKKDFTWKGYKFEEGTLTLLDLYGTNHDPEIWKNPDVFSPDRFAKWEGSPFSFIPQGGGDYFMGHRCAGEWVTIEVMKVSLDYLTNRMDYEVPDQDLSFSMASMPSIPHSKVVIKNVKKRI

CYP152K6 [2] = target: T1, CYP152K6; test: X-ray crystal structure, […] Å; assay type: binding; details: co-purified from E. coli, bound above heme at Arg244; pH 8.0 protein buffer

Row | SMILES | X-band EPR and UV-visible spectroscopy (CYP152K6 [1]) | X-ray crystal structure, 1.3 Å (CYP152K6 [2])
1 | CCCCCCCCCCCC(=O)O [dodecanoic acid] | the addition of dodecanoic acid alters the equilibria between the three major components | –
2 | CCCCCCCCCCCCCC(=O)O [tetradecanoic acid] | – | The final model of CYP152K6 in complex with tetradecanoic acid has been deposited
